Legend:
[1] = test system: K562/Dox cells; assay: Doxorubicin resistance reversal assay in K562/Dox (MTT); details: K562/Dox
Method: Simultaneously, viability controls were run with no addition of the dissolution solvent. The cells were incubated at 37 °C at 5% CO2 for 48 h and the same protocol described above was followed. The potency of the compounds was established by means of the fold reversal (FR) values calculated from dividing the IC50 of Dox alone by the IC50 of Dox with different concentrations of each compound tested.

[2] = target: T1, P-gp (Homo sapiens, UniProt P08183); details: Rho123 accumulation, K562/Dox; cited from earlier work
[3] = target: T1, P-gp; assay: Rhodamine 123 intracellular accumulation assay in K562/Dox (flow cytometry); details: Rho123, K562/Dox

T1 sequence (P08183 whole entry): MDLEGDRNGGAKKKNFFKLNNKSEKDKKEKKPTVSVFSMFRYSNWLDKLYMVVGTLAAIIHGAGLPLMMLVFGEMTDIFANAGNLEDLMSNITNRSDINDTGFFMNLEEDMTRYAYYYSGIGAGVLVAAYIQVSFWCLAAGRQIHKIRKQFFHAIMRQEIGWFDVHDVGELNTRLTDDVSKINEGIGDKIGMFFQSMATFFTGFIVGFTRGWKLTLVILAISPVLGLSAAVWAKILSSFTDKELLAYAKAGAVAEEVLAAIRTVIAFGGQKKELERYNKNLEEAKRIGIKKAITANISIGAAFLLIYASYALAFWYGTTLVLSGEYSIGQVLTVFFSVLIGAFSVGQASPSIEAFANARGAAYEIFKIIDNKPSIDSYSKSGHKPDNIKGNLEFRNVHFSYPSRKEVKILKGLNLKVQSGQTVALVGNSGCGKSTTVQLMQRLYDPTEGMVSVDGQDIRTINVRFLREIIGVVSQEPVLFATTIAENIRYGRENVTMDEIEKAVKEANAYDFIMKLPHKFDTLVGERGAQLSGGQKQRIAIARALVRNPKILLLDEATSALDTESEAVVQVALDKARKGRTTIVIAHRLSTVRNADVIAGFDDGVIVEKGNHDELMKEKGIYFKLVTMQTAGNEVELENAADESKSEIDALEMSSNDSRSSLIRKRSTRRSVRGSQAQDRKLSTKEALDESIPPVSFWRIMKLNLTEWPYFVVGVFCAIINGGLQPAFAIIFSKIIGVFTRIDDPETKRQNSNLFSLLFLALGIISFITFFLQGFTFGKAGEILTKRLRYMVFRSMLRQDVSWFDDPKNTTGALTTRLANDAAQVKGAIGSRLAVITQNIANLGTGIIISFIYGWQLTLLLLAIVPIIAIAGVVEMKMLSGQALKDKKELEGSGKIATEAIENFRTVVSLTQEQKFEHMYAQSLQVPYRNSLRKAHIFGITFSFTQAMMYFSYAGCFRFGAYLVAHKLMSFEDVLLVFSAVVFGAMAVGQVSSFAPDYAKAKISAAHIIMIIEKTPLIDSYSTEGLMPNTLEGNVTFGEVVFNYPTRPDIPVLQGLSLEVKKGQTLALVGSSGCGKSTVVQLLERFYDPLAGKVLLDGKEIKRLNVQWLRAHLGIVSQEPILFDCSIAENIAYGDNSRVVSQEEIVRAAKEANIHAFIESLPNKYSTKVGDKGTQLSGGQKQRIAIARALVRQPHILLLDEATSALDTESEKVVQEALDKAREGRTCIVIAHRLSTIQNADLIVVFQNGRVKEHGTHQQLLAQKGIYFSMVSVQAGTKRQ

SMILES: C=C(C)[C@@H]1CC[C@]2(CO)CC[C@]3(C)[C@H](CC[C@@H]4[C@@]5(C)CC[C@H](O)C(C)(C)[C@@H]5CC[C@]43C)[C@@H]12 [Compound 1, betulin]
- MEC, Dox resistance reversal [1]: 0.39 µM
- MEC (minimum effective concentration) [2]: 1.56 µM
- FAR (fluorescence activity ratio) ([3]; 0.78 µM): 1.01 ± 0.07
- FAR (fluorescence activity ratio) ([3]; 1.56 µM): 1.12 ± 0.03
- FAR (fluorescence activity ratio) ([3]; 3.12 µM): 1.23 ± 0.04
- FAR (fluorescence activity ratio) ([3]; 6.25 µM): 1.32 ± 0.06
- FAR (fluorescence activity ratio) ([3]; 12.50 µM): 1.80 ± 0.08
- FAR (fluorescence activity ratio) ([3]; 25 µM): 2.34 ± 0.19
- FAR (fluorescence activity ratio) ([3]; 50 µM): 2.77 ± 0.36
